In US9005962B2, “Regionalised endoderm cells and uses thereof” (The University Court of the University of Edinburgh, priority 2007, dated 2015):

Experiments:
Hex^RS ES cells [1] = assay: ADE (H+C+) induction, serum-free suspension (aggregation) culture, flow cytometry; assay type: cell-based
Protocol: For ADE induction under serum-free conditions in suspension culture, ES cells were seeded onto non-coated 10 cm Petri dishes at 5×10^3 cells/ml in N2B27 culture medium supplemented with 10 ng/ml Bmp4 and 20 ng/ml activin A. Following 2 days of culture the resulting EBs were harvested as above and replated on non-coated Petri dishes at the same density in SF03 culture medium (ref Tada 2005) supplemented with 20 ng/ml activin A and 20 ng/ml EGF. The media was replaced 2 days later and then every 3 days for the duration of the experiment. For some experiments 10 ng/ml Fgf4 (R&D), 10 ng/ml Bmp4, 20 ng/ml Activin A, 1×10^−5M all-trans retinoic acid, 100 ng/ml PD173074 (Sigma), 20 ng/ml EGF and 3 μM CHIR99021 were added to the culture at the indicated timepoints.
FITC-conjugated rat anti-CD184 (CXCR4), FITC-conjugated rat anti-CD31 and FITC conjugated rat anti-CD45 were purchased from BD Pharmingen. EBs generated under various different differentiation conditions were dissociated by treatment with cell dissociation buffer (PBS based) (GIBCO-BRL). Cells were washed in PBS supplemented with 10% FCS (FB) and resuspended at a maximum density of 5×10^6 cells/ml. For surface staining 200 μl of cells were plated in a V shape 96 well polystyrene plate (Sterilin) in PBS supplemented with 1% serum of the species in which the antibody was manufactured. The FITC-conjugated antibody or a FITC-conjugated isotype control was added at a 1:100 dilution. Cells were incubated in the dark for 20 mins, washed 3 times with FB and resuspended in FB supplemented with Topro3-iodide (Invitrogen) to exclude dead cell from the analysis. Cells were analysed using a FACS Calibur (BD Biosciences) or sorted using a MoFlo MLS flow cytometer (DakoCytomation). […]
FITC-conjugated rat anti-CD184 (Cxcr4), FITC-conjugated rat anti-CD31 and FITC conjugated rat anti-CD45 were purchased from BD Pharmingen. […] Cells were analysed using a FACS Calibur (BD Biosciences) or sorted using a MoFlo MLS flow cytometer (DakoCytomation).

Hex^RS ES cells [2] = assay: ADE (H+C+) induction, two-step suspension (embryoid body) differentiation with serum day 0-2, flow cytometry for RS and Cxcr4; assay type: cell-based, mouse
Protocol: ADE was induced under serum-containing conditions using a 2-step protocol. ES cells were seeded onto non-coated 10 cm petri dishes (sterilin) at a density of 5×10^3 cells/ml in Glasgow minimum essential medium (G-MEM; GIBCO-BRL) supplemented with 10% fetal calf serum (FCS), 0.1 mM nonessential amino acids (GIBCO-BRL), 1 mM sodium pyruvate, 2 mM glutamine and 0.1 mM 2-mercaptoethanol (2ME). Following 2 days of culture the resulting embryoid bodies (EBs) were harvested by centrifugation at 500 rpm for 1 min and replated on 10 cm non-coated petri dishes at the same density in N2B27 culture medium (StemCellSciences) supplemented with 20 ng/ml activin A (R&D). The media was replaced 2 days later and then every 3 days for the duration of the experiment. For some experiments 20 ng/ml EGF, 10 ng/ml Bmp4, 20 ng/ml activin A (R&D), 1×10^−5M all-trans retinoic acid (Sigma) and 3 μM CHIR99021 (a gift from StemCellSciences) were added to the culture at the indicated timepoints.
(§1) FITC-conjugated rat anti-CD184 (CXCR4), FITC-conjugated rat anti-CD31 and FITC conjugated rat anti-CD45 were purchased from BD Pharmingen. EBs generated under various different differentiation conditions were dissociated by treatment with cell dissociation buffer (PBS based) (GIBCO-BRL). Cells were washed in PBS supplemented with 10% FCS (FB) and resuspended at a maximum density of 5×10^6 cells/ml. For surface staining 200 μl of cells were plated in a V shape 96 well polystyrene plate (Sterilin) in PBS supplemented with 1% serum of the species in which the antibody was manufactured. The FITC-conjugated antibody or a FITC-conjugated isotype control was added at a 1:100 dilution. Cells were incubated in the dark for 20 mins, washed 3 times with FB and resuspended in FB supplemented with Topro3-iodide (Invitrogen) to exclude dead cell from the analysis. Cells were analysed using a FACS Calibur (BD Biosciences) or sorted using a MoFlo MLS flow cytometer (DakoCytomation).
Mouse ES cells were cultured according to Li et al., (1995). ADE was induced under serum-containing conditions using a 2-step protocol. ES cells were seeded onto non-coated 10 cm petri dishes (Sterilin) at a density of 5×10^3 cells/ml in GMEM supplemented as described in Li et al., (1995) except in the absence of LIF. EBs were harvested after two days by centrifugation and replated in N2B27 medium (StemCellSciences) supplemented with 20 ng/ml activin A (R&D) and 20 ng/ml EGF (R&D). This media was replaced again two days later. 10 ng/ml BMP4, 20 ng/ml activin A (R&D) and 1×10^−5M all-trans retinoic acid (Sigma) were added where indicated.
(§2) FITC-conjugated rat anti-CD184 (Cxcr4), FITC-conjugated rat anti-CD31 and FITC conjugated rat anti-CD45 were purchased from BD Pharmingen. Cells were stained with Topro3-iodide (Invitrogen) to exclude dead cells from the analysis. Cells were analysed using a FACS Calibur (BD Biosciences) or sorted using a MoFlo MLS flow cytometer (DakoCytomation).

Hex^RS ES cells [3] = assay: ADE (H+C+) induction, serum-free adherent monolayer culture, flow cytometry, RT-PCR and immunostaining; assay type: cell-based; settings: for ADE differentiation / ability to promote ADE formation: FIG. 25; for ADE differentiation: added to cultures for days 3-4 or days 3-7, PD173074 100 ng/ml, SU5402 25 μM; for ability to promote ADE formation: monolayer, FGFs at 10 ng/ml
Protocol: For ADE induction under serum-free conditions in adherent monolayer culture, ES cells were seeded onto gelatin coated 3 cm 6 well dishes (Iwaki) at a density of 1×10^4 cells/ml in N2B27 medium (StemCellSciences) supplemented with 10 ng/ml Bmp4, 20 ng/ml activin A and 10 ng/ml Fgf4. Following 2 days of culture the media was replaced with SF03 culture medium (Tada 2005) supplemented with 20 ng/ml activin A, 10 ng/ml Fgf4 and 20 ng/ml EGF. The media was replaced 2 days later and then every 3 days for the duration of the experiment. For some experiments 1×10^−5M all-trans retinoic acid, 100 ng/ml PD173074 and 3 μM CHIR99021 were added to the culture at the indicated timepoints.
as §1
Total RNA was prepared from a minimum of 1×10^4 cells from sorted cell fractions, EBs, monolayer differentiated cells or ES cells using Trizol reagent (Invitrogen). 1 μg of RNA was used as a template for cDNA synthesis using Superscript III (Invitrogen). Real-time RT-PCR was performed using a LightCycler 480 (Roche) and LightCycler 480 SYBR Green 1 Master (Roche). The following cycling conditions were used: denaturation: 95° C. 5 sec, amplification: 95° C. 5 sec, 58° C. 10 sec, 72° C. 20 sec (45 cycles), 81° C. 1 sec, melt: 95° C. 1 sec, 65° C. 10 sec, 95° C. −ramp 5 C per sec continuous, cool: […] 10 sec. Standard curves were generated from plasmid. Samples were normalized to β-actin or TATA-box binding protein (TBP) expression levels.
Sorted cells were seeded onto gelatin coated 24 well dishes (Iwaki). Adherence of cells to the substrate was enhanced by centrifugation at 1200 rpm for 3 mins. Sorted cells, monolayer differentiated cells and ES cells were washed in PBS, fixed in 4% paraformaldehyde for 10 mins and permeabilised by washing in PBS supplemented with 0.1% Triton X (PBST). Cells were treated with a blocking reagent (3% serum of same species as secondary antibody, 1% BSA in PBST) for 15 min before incubation with the primary antibody at 4° C. overnight. The cells were washed with PBST and incubated with the appropriate fluorescence-tagged secondary antibody for 2 hr at room temperature. The cells were washed with PBST and DAPI added during the final wash. The following primary antibodies were used, all are anti-mouse: anti-Oct3/4, anti-HNF-3β (Foxa2), anti-HNF-4α (Santa Cruz), anti-Cer11 (R&D), anti-E-cadherin (Takara Bio Inc) anti-alpha fetoprotein (NeoMarkers), anti-albumin (Bethyl laboratories inc). Anti-Pdx1 was a gift from P. Serup. […]
as §2

[4] = FGF signalling blocked for days 3-7
[5] = exogenous FGF4, defined monolayer culture (FIG. 22C, D)

How did the “total number of surviving cells at the end of the 7 day differentiation” value (Hex^RS ES cells [1]; added during the first two days, serum-free, aggregation and monolayer (Table 7)) turn out when `Cc1c[nH]c(-c2cnc(NCCNc3ccc(C#N)cn3)nc2-c2ccc(Cl)cc2Cl)n1` [CHIR99021] was run?
Its value is “significantly increased”.

And the “total number of H+C+ cells produced” value (Hex^RS ES cells [1]; serum-free differentiation (Table 7))?
The value was “no or only very minor effects”.

What about the “induction of the H+C+ cell population” value (Hex^RS ES cells [2]; addition at day 0-2, in the presence of serum) of the same molecule?
Its value is “completely blocked”.

Which results are given for `CC1=C(/C=C/C(C)=C/C=C/C(C)=C/C(=O)O)C(C)(C)CCC1` [retinoic acid, all-trans retinoic acid, reference compound]?
induction of the RS positive population (Hex^RS ES cells [2]; added either at day 0 or day 3 (Table 2)): completely blocked; CXCR4 induction (Hex^RS ES cells [2]; added either at day 0 or day 3, data not shown): without effecting

Which results are given for `CCN(CC)CCCCNc1ncc2cc(-c3cc(OC)cc(OC)c3)c(NC(=O)NC(C)(C)C)nc2n1` [PD173074, reference compound]?
H+C+ and C+ populations (Hex^RS ES cells [3]; [4]): complete loss; cell survival / viability (Hex^RS ES cells [3]; [4]): dramatically compromised; ADE differentiation (Hex^RS ES cells [3]): inhibit ADE differentiation; generation of C+ and H+C+ populations (Hex^RS ES cells [3]; inhibitor present for the entire protocol): unable to generate either population; number of C+ and H+C+ cells (Hex^RS ES cells [3]; inhibitor present for the first two days of differentiation, then removed): reduced number

For “FGF2: fibroblast growth factor, 10 ng/ml”, which “ability to promote ADE formation” value (Hex^RS ES cells [3]) is on record?
Its value is “have the ability to promote ADE formation”.

With `Cc1c[nH]c(/C=C2\C(=O)Nc3ccccc32)c1CCC(=O)O` [SU5402, reference compound] as the molecule, how does the ADE differentiation (Hex^RS ES cells [3]) read?
The ADE differentiation was “inhibit ADE differentiation”.

B1: FGF10: fibroblast growth factor, 10 ng/ml (protein, UniProt O15520 38-208, looked up)
Fibroblast growth factor 10: QALGQDMVSPEATNSSSSSFSSPSSAGRHVRSYNHLQGDVRWRKLFSFTKYFLKIEKNGKVSGTKKENCPYSILEITSVEIGVVAVKAINSNYYLAMNKKGKLYGSKEFNNDCKLKERIEENGYNTYASFNWQHNGRQMYVALNGKGAPRRGQKTRRKNTSAHFLPMVVHS
With B1 as the molecule, how does the “ability to promote ADE formation” value (Hex^RS ES cells [3]) read?
The value was “not”.

B2: activin: secreted TGFβ ligand, activin A (R&D), 20 ng/ml (protein, UniProt P08476 311-426, looked up)
Inhibin beta A chain: GLECDGKVNICCKKQFFVSFKDIGWNDWIIAPSGYHANYCEGECPSHIAGTSGSSLSFHSTVINHYRMRGHSPFANLKSCCVPTKLRPMSMLYYDDGQNIIKKDIQNMIVEECGCS
modifications: Inhibin beta A chain
For B2, which “cells RS positive” value (Hex^RS ES cells [2]; day 7, serum containing media 48 hr, then serum free media supplemented with activin 5 days) is on record?
The value was 6.8-8.6%.

B3: FGF4: fibroblast growth factor, 10 ng/ml (R&D) (protein, UniProt P08620 31-206, looked up)
Fibroblast growth factor 4: APTAPNGTLEAELERRWESLVALSLARLPVAAQPKEAAVQSGAGDYLLGIKRLRRLYCNVGIGFHLQALPDGRIGGAHADTRDSLLELSPVERGVVSIFGVASRFFVAMSSKGKLYGSPFFTDECTFKEILLPNNYNAYESYKYPGMFIALSKNGKTKKGNRVSPTMKVTHFLPRL
Which results are given for B3?
H+C+ ADE (Hex^RS ES cells [3]; FIG. 22E, FGF4 added solely during the second phase of differentiation): up to 20%; ability to promote ADE formation (Hex^RS ES cells [3]): have the ability to promote ADE formation; number of CXCR4 expressing cells (Hex^RS ES cells [3]; addition of Fgf4, monolayer): did not increase; anterior markers Cer1 and Gsc (Hex^RS ES cells [3]; [5]): induction; expression of Foxa2 and Sox17 (Hex^RS ES cells [3]; [5]): increased; mesodermal and primitive streak gene expression (Hex^RS ES cells [3]; exogenous FGF4, defined monolayer culture (FIG. 22D)): suppressing; H+C+ cell number (Hex^RS ES cells [3]; monolayer cultures, inclusion in the differentiation protocol): doubled

B4: FGF5: fibroblast growth factor, 10 ng/ml (protein, UniProt P12034 21-268, looked up)
Fibroblast growth factor 5: HGEKRLAPKGQPGPAATDRNPRGSSSRQSSSSAMSSSSASSSPAASLGSQGSGLEQSSFQWSPSGRRTGSLYCRVGIGFHLQIYPDGKVNGSHEANMLSVLEIFAVSQGIVGIRGVFSNKFLAMSKKGKLHASAKFTDDCKFRERFQENSYNTYASAIHRTEKTGREWYVALNKRGKAKRGCSPRVKPQHISTHFLPRFKQSEQPELSFTVTVPEKKKPPSPIKPKIPLSAPRKNTNSVKYRLKFRFG
B4 was tested. Which “ability to promote ADE formation” value (Hex^RS ES cells [3]) did it give?
Its value is “not”.
